Results from the NIST ThermoML archive (doi:10.1016/j.fluid.2007.07.066).

Assay: refractive index (Na D-line) (dimensionless); mn = molality of the nth substance listed, in mol/kg
Conditions: 298.15 K, 101 kPa, Liquid, Standard Abbe refractometry

O=P([O-])([O-])O.[Na+].[Na+] [disodium hydrogen phosphate] + O
Conditions | refractive index
m1 = 0.0049 | 1.3328
m1 = 0.0104 | 1.3329
m1 = 0.0154 | 1.3331
m1 = 0.0211 | 1.3333
m1 = 0.0413 | 1.334
m1 = 0.0712 | 1.3348
m1 = 0.1066 | 1.3357
m1 = 0.1437 | 1.3367
m1 = 0.1927 | 1.3379
m1 = 0.2475 | 1.3392
m1 = 0.3697 | 1.3421
m1 = 0.4438 | 1.3438
m1 = 0.5295 | 1.3458
m1 = 0.6125 | 1.3476
m1 = 0.6768 | 1.349
m1 = 0.7479 | 1.3505
m1 = 0.8346 | 1.3524
m1 = 0.9695 | 1.3551
